Test results published in publication PMC4301837, “Aldosterone synthase inhibition: cardiorenal protection in animal disease models and translation of hormonal effects to human subjects” (Journal of Translational Medicine, 2014).
Read-outs that look alike come from different tables or passages of the source. Marks after values point to notes of the source that are not given here.

What was measured:
[1] = dogs, ref D. Rigel, personal communication, cited from earlier work
[2] = molecular target: 11β-hydroxylase (CYP11B1), rat adrenal homogenate (Rattus norvegicus, UniProt P15393); assay: biochemical
[3] = system: patients with essential hypertension; conditions: cited from earlier work
[4] = system: dTG rats with pre-established cardiorenal disease; assay: Survival study in older, enalapril-pre-treated dTG rats with established cardiorenal disease; type: in vivo, rat; conditions: older dTG rats
human CYP11B2 = system: human CYP11B2; design: method as in PMID 24899257; conditions: recombinant hamster fibroblasts expressing human CYP11B1 and CYP11B2; read-out: IC50, inhibition of aldosterone synthesis; cited from earlier work
[5] = system: ACTH-stimulated aldosterone and corticosterone synthesis; conditions: rat, ACTH stimulation
[6] = system: ACTH-stimulated aldosterone and corticosterone synthesis; assay: animal or person; conditions: Rattus norvegicus; for ED50: po
[7] = molecular target: aldosterone synthase (CYP11B2), rat adrenal homogenate (Rattus norvegicus, UniProt P30099); assay: biochemical
[8] = human, 0.5–3 mg once daily oral
[9] = system: ACTH-stimulated aldosterone, cortisol and precursors; assay: Human ACTH (cortisol) stimulation test, multiple-dose phase; type: in vivo
[10] = system: patients with primary aldosteronism; conditions: 14 patients, 0.5 mg and 1 mg twice daily, 4 weeks; cited from earlier work
clinical = conditions: male, human, plasma; for half-life: t½
[11] = system: ACTH-stimulated plasma aldosterone and cortisol; assay: animal or person; conditions: Macaca fascicularis
in vivo = conditions: male, cynomolgus monkey, plasma, po
[12] = monkey, 15–150 μg/kg
[13] = molecular target: recombinant human 11β-hydroxylase (CYP11B1) (Homo sapiens, UniProt P15538); conditions: Lineweaver–Burk plots; at higher concentrations
healthy male volunteers = assay: Human pharmacodynamics, multiple-dose phase; conditions: for Plasma potassium, Δ Day2 vs baseline (Day −1) / Plasma potassium, Δ Day7 vs baseline (Day −1) / Plasma potassium, Δ Day14 vs Day 7 / Plasma sodium, Δ Day2 vs baseline (Day −1) / Plasma sodium, Δ Day7 vs baseline (Day −1) / Plasma sodium, Δ Day14 vs Day 7 / Urinary potassium, Δ Day 1 vs baseline (Day −1) / Urinary potassium, Δ Day 7 vs baseline (Day −1) / Urinary potassium, Δ Day 14 vs Day 7 / Urinary sodium, Δ Day 1 vs baseline (Day −1) / Urinary sodium, Δ Day 7 vs baseline (Day −1) / Urinary sodium, Δ Day 14 vs Day 7: ANCOVA mean
[14] = system: Ang-II-stimulated aldosterone synthesis; assay: animal or person; conditions: Rattus norvegicus, po, read-out: ED50 for inhibiting Ang-II-stimulated aldosterone response
[15] = system: Ang-II-stimulated aldosterone synthesis; conditions: rat, Ang II stimulation
[16] = system: ACTH-stimulated plasma aldosterone and cortisol
[17] = 524 patients, 0.25 to 1 mg, 8 weeks
[18] = approximately 2 h after oral dosing
[19] = oral, single-dose phase, doses up to 200 mg
[20] = LCI699 0.5 mg, Day 1, mean ± SEM

Chain of recombinant human 11β-hydroxylase (CYP11B1) (P15538 25-503): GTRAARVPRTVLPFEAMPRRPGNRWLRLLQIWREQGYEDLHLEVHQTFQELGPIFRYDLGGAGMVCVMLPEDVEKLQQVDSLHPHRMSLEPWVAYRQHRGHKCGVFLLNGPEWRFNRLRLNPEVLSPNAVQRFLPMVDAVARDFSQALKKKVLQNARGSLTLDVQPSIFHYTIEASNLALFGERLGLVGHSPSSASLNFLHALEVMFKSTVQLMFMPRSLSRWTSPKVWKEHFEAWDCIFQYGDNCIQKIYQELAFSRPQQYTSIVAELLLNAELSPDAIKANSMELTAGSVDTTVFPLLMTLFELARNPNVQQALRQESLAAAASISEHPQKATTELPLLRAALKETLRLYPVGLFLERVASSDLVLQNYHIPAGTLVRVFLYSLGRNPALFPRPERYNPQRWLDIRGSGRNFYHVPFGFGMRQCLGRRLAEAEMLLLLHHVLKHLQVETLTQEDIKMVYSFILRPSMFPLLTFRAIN

## N#Cc1ccc([C@H]2CCc3cncn32)c(F)c1 [LCI699]
[1]; 1 mg/kg oral dose
  oral bioavailability: […]
[1]
  half-life: […]
[2]
  IC50: […]
[3]; 1 mg once daily
  hypertensive patients with attenuated ACTH-stimulated cortisol response: […]
[3]; [17]
  placebo-corrected reduction in ambulatory diastolic blood pressure: […]
  placebo-corrected reduction in ambulatory systolic blood pressure: […]
[3]; total daily dose of 1 mg
  subjects with suppressed ACTH-stimulated cortisol release: […]
[4]; 30 mg/kg/day in drinking water from 24 weeks of age, P = 0.07
  prolongation of median survival: […]
[4]; LCI699 30 mg/kg/day, n = 7
  treated rats that died suddenly: two of the seven
Human CYP11B2
  IC50: […]
[5]; oral
  dose above which inhibition of stimulated plasma aldosterone shows an apparent plateau: […]
[5]; [18]
  Maximal reduction in plasma aldosterone from baseline: […]
[6]; read-out: ED50 for inhibiting ACTH-stimulated aldosterone
  ED50: […]
[6]; read-out: ED50 for inhibiting ACTH-stimulated corticosterone
  ED50: […]
[6]; read-out: EC50 for inhibiting ACTH-stimulated aldosterone
  EC50: […]
[6]; read-out: EC50 for inhibiting ACTH-stimulated corticosterone
  EC50: […]
[7]
  IC50: […]
[8]
  Tmax: […]
[9]; LCI699 0.5 mg, Day 6
  peak reduction of ACTH-stimulated cortisol levels from baseline: […]
[9]; LCI699 0.5 mg, eplerenone 100 mg
  effect on ACTH-stimulated 11-DOC levels: no significant effect
[9]; LCI699 1 mg, Day 6
  maximal increase in ACTH-stimulated 11-DOC from baseline: 95%
[9]; LCI699 1 mg, Day 13
  effect on ACTH-stimulated cortisol response: attenuation of the ACTH-stimulated cortisol response
[9]; LCI699 3 mg, Day 6
  peak increase in ACTH-stimulated 11-deoxycortisol from baseline: 82%
[9]; LCI699 3 mg, Day 13
  increase in ACTH-stimulated 11-DOC levels: […]
  peak increase in ACTH-stimulated 11-deoxycortisol from baseline: […]
[9]; LCI699 10 mg
  time to complete reversal of cortisol suppression after discontinuing: […]
[9]; LCI699 10 mg, Days 6 and 10
  effect on ACTH-stimulated cortisol: further suppressed
[9]; LCI699 0.5–3 mg, Day 6
  peak inhibition of ACTH-stimulated aldosterone levels from baseline (Day −2): […]
[9]; eplerenone 100 mg and lower doses of LCI699 (0.5, 1 mg), Day 6 or Day 13
  effect on cortisol precursors (ACTH-stimulated): no significant effect
[10]
  effect on plasma and urinary aldosterone levels: effectively reduced
clinical; [19]
  Tmax: […]
  half-life: […]
clinical; oral, after both single and multiple doses
  half-life: […]
clinical; po, 0.5–3 mg once daily oral
  Tmax: […]
[11]; po, read-out: ED50 for inhibition of ACTH-stimulated plasma aldosterone
  ED50: […]
[11]; read-out: EC50 for inhibition of ACTH-stimulated plasma aldosterone
  EC50: […]
In vivo
  Tmax: […]
  half-life: […]
[12]
  dose proportionality of pharmacokinetics: dose-proportional
[13]
  mode of inhibition of 11β-hydroxylase: reversible competitive inhibitor
Healthy male volunteers; LCI699 0.5 mg once daily
  Plasma potassium, Δ Day2 vs baseline (Day −1): […]
  Plasma potassium, Δ Day7 vs baseline (Day −1): […]
  Plasma potassium, Δ Day14 vs Day 7: […]
  Plasma sodium, Δ Day2 vs baseline (Day −1): […]
  Plasma sodium, Δ Day7 vs baseline (Day −1): […]
  Plasma sodium, Δ Day14 vs Day 7: […]
  Urinary potassium, Δ Day 1 vs baseline (Day −1): […]
  Urinary potassium, Δ Day 7 vs baseline (Day −1): […]
  Urinary potassium, Δ Day 14 vs Day 7: […]
  Urinary sodium, Δ Day 1 vs baseline (Day −1): […]
  Urinary sodium, Δ Day 7 vs baseline (Day −1): […]
  Urinary sodium, Δ Day 14 vs Day 7: […]
Healthy male volunteers; LCI699 0.5 mg, Day 1
  change in 24 h urinary aldosterone levels from baseline: […]
Healthy male volunteers; [20]
  reduction of 24 h urinary aldosterone: […]
  reduction of plasma aldosterone: […]
Healthy male volunteers; LCI699 0.5 mg, Day 6
  change in pre-dose plasma ACTH from baseline: […]
Healthy male volunteers; LCI699 0.5 mg, Day 7
  increase in PRA from baseline: […]
Healthy male volunteers; LCI699 0.5 mg, Day 14
  increase in PRA compared with baseline: […]
Healthy male volunteers; LCI699 1 mg and 3 mg once daily, Day 14
  Mean pre-dose plasma aldosterone levels: […]
Healthy male volunteers; LCI699 1 mg once daily
  Plasma sodium, Δ Day2 vs baseline (Day −1): −0.59 mEq/L
Healthy male volunteers; LCI699 1 mg, Day 1
  change in 24 h urinary aldosterone levels from baseline: […]
Healthy male volunteers; LCI699 1 mg, Day 6
  change in pre-dose plasma ACTH from baseline: −31.4%
Healthy male volunteers; LCI699 1 mg, Day 7
  change in 24 h urinary aldosterone levels from baseline: […]
  increase in PRA from baseline: […]
Healthy male volunteers; LCI699 1 mg, Day 14
  increase in PRA compared with baseline: 327%
Healthy male volunteers; LCI699 3 mg once daily
  Plasma sodium, Δ Day2 vs baseline (Day −1): […]
  Plasma sodium, Δ Day7 vs baseline (Day −1): […]
  Plasma sodium, Δ Day14 vs Day 7: […]
  Urinary potassium, Δ Day 1 vs baseline (Day −1): […]
  Urinary potassium, Δ Day 7 vs baseline (Day −1): […]
  Urinary sodium, Δ Day 1 vs baseline (Day −1): […]
  Urinary sodium, Δ Day 7 vs baseline (Day −1): […]
  Urinary sodium, Δ Day 14 vs Day 7: […]
Healthy male volunteers; LCI699 3 mg, Day 1
  change in 24 h urinary aldosterone levels from baseline: –66%
Healthy male volunteers; LCI699 3 mg, Day 6
  change in pre-dose plasma ACTH from baseline: −15.6%
Healthy male volunteers; LCI699 3 mg, Day 7
  change in 24 h urinary aldosterone levels from baseline: […]
  increase in PRA from baseline: […]
  increase in trough 11-DOC levels from baseline: […]
Healthy male volunteers; LCI699 3 mg, Day 14
  increase in PRA compared with baseline: […]
Healthy male volunteers; LCI699 10 mg
  increase in pre-dose ACTH levels compared with baseline: […]
Healthy male volunteers; LCI699 10 mg, Day 6
  increase in pre-dose plasma 11-deoxycortisol from baseline: […]
Healthy male volunteers; LCI699 10 mg, Day 7, one subject (second subject no change)
  reduction in 24 h urinary cortisol: […]
Healthy male volunteers; LCI699 10 mg, data not shown
  plasma aldosterone following the 10 mg dose: No further reduction
Healthy male volunteers; LCI699 0.5 or 1 mg, Day 7
  change in trough 11-DOC levels: no change
Healthy male volunteers; LCI699 0.5–3 mg, Day 1, 7 or 14
  effect on plasma or 24 h urinary cortisol: no significant effect
[14]
  ED50: […]
[15]; oral
  dose above which inhibition of stimulated plasma aldosterone shows an apparent plateau: […]
[15]; [18]
  Maximal reduction in plasma aldosterone from baseline: […]
[16]; Ang-II- and ACTH-stimulation models in rats and monkeys
  maximal inhibition of aldosterone production at the upper dose: […]
[16]; monkey, 150 μg/kg oral, 3 h prior to ACTH
  decrease in ACTH-stimulated plasma aldosterone response compared with vehicle control: […]
[16]; monkey, 5–150 μg/kg oral
  inhibition of ACTH-stimulated cortisol synthesis: No significant inhibition
